In US20260274807A1 (University of Health Sciences and Pharmacy in St. Louis, priority 2023, published 2026):

Legend:
ERRα = biological target: T1, ERRα (Homo sapiens, UniProt P11474); assay: ERRE luciferase reporter assay in HEK293 cells transfected with pcDNA3.1 ERRα; format: cell-based; design: key to EC50 (ERRα) μM: * <1 μM; ** 1-5 μM; *** >5 μM; i.a. (inactive); conditions: HEK293 cells transfected with ERRE reporter construct and pcDNA3.1 ERRα; compound for 24 hours; luciferase activity
T1 construct: expressed in transfected cells; host or cells: HEK293
T1 sequence (P11474 1-423): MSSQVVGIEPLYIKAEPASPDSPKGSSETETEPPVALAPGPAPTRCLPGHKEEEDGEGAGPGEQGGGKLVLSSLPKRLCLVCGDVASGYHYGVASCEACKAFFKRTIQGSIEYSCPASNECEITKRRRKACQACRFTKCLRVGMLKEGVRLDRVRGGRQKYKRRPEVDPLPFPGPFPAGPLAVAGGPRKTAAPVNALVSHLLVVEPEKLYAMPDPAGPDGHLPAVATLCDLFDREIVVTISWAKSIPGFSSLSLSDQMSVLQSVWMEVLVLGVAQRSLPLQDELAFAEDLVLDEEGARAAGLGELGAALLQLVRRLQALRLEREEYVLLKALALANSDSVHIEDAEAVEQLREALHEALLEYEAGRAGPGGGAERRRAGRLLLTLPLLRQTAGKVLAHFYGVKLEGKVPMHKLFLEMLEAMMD
Procedure: (§1) HEK293 cells were maintained in Dulbecco's modified Eagles medium (DMEM) supplemented with 10% fetal bovine serum at 37° C. under […]. […] Cells were transfected with ERRE reporter construct and pcDNA3.1 ERRα or ERRγ. Twenty-four-hours post-transfection, the cells were treated with vehicle or compound (various concentrations) for 24 hours (4 wells per dose). Luciferase activity was measured using the One-Glo Tox luciferase reporter assay system (Promega) and EC50s were calculated using GraphPad Prism software.

ERRγ = biological target: T2, ERRγ (Homo sapiens, UniProt P62508); assay: ERRE luciferase reporter assay in HEK293 cells transfected with pcDNA3.1 ERRγ; format: cell-based; design: key to EC50 (ERRγ) μM: * <1 μM; ** 1-5 μM; *** >5 μM; i.a. (inactive); conditions: HEK293 cells transfected with ERRE reporter construct and pcDNA3.1 ERRγ; compound for 24 hours; luciferase activity
T2 construct: expressed in transfected cells; host or cells: HEK293
T2 sequence (P62508 1-458): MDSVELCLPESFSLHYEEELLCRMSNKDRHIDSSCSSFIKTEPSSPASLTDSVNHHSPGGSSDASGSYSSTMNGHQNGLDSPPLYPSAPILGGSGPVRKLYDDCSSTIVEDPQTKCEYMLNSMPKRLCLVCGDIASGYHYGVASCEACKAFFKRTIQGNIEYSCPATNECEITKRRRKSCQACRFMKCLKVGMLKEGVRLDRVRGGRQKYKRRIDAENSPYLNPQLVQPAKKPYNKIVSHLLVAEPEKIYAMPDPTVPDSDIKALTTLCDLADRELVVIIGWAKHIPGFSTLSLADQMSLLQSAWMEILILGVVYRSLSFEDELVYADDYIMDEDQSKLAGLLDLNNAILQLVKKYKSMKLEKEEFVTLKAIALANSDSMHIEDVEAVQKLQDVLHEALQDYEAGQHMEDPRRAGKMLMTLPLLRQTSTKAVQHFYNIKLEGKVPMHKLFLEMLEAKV
Procedure: as §1

SMILES	EC50 (ERRα)	EC50 (ERRγ)	EC50 (ERRα) μM (ERRα)	EC50 (ERRγ) μM (ERRγ)
FC(F)(F)c1ccc(-c2nnc(-c3ccnc4ccccc34)o2)cc1 [Entry 47, 2-(quinolin-4-yl)-5-(4-(trifluoromethyl)phenyl)-1,3,4-oxadiazole]	> 5000 nM	> 5000 nM		
FC(F)(F)c1ccc(-c2nnc(-c3ccc4ccccc4n3)o2)cc1 [Entry 48, 2-(quinolin-2-yl)-5-(4-(trifluoromethyl)phenyl)-1,3,4-oxadiazole]			i.a.	i.a.
O=[N+]([O-])c1cccc(-c2nnc(-c3ccc(C(F)(F)F)cc3)o2)c1 [Entry 51, 2-(3-nitrophenyl)-5-(4-(trifluoromethyl)phenyl)-1,3,4-oxadiazole]			i.a.	i.a.
O=[N+]([O-])c1ccc(-c2nnc(-c3ccc(C(F)(F)F)cc3)o2)cc1 [Entry 52, 2-(4-nitrophenyl)-5-(4-(trifluoromethyl)phenyl)-1,3,4-oxadiazole]	> 5000 nM	> 5000 nM		
COc1cccc(-c2nnc(-c3ccc(C(F)(F)F)cc3)o2)c1 [Entry 54, 2-(3-methoxyphenyl)-5-(4-(trifluoromethyl)phenyl)-1,3,4-oxadiazole]	> 5000 nM	> 5000 nM		
COc1ccc(-c2nnc(-c3ccc(C(F)(F)F)cc3)o2)cc1 [Entry 55, 2-(4-methoxyphenyl)-5-(4-(trifluoromethyl)phenyl)-1,3,4-oxadiazole]			i.a.	i.a.
FC(F)(F)c1cccc(-c2nnc(-c3ccc4ccccc4n3)o2)c1 [Entry 60, 2-(quinolin-2-yl)-5-(3-(trifluoromethyl)phenyl)-1,3,4-oxadiazole]	1000 to 5000 nM	1000 to 5000 nM		
O=[N+]([O-])c1ccccc1-c1nnc(-c2cccc(C(F)(F)F)c2)o1 [Entry 62, 2-(2-nitrophenyl)-5-(3-(trifluoromethyl)phenyl)-1,3,4-oxadiazole]	1000 to 5000 nM	1000 to 5000 nM		
O=[N+]([O-])c1cccc(-c2nnc(-c3cccc(C(F)(F)F)c3)o2)c1 [Entry 63, 2-(3-nitrophenyl)-5-(3-(trifluoromethyl)phenyl)-1,3,4-oxadiazole]	1000 to 5000 nM	> 5000 nM		
FC(F)(F)c1cccc(-c2nnc(-c3ccccc3Cl)o2)c1 [Entry 65, 2-(2-chlorophenyl)-5-(3-(trifluoromethyl)phenyl)-1,3,4-oxadiazole]	1000 to 5000 nM	> 5000 nM		
COc1cccc(-c2nnc(-c3cccc(C(F)(F)F)c3)o2)c1 [Entry 66, 2-(3-methoxyphenyl)-5-(3-(trifluoromethyl)phenyl)-1,3,4-oxadiazole]	1000 to 5000 nM	1000 to 5000 nM		
Nc1ccccc1-c1nnc(-c2ccccc2)o1 [Entry 68, 2-(5-phenyl-1,3,4-oxadiazol-2-yl)aniline]	1000 to 5000 nM	1000 to 5000 nM		
Cc1ccc(-c2nnc(-c3ccccc3[N+](=O)[O-])o2)o1 [Entry 76, 2-(5-methylfuran-2-yl)-5-(2-nitrophenyl)-1,3,4-oxadiazole]	1000 to 5000 nM	1000 to 5000 nM		
O=[N+]([O-])c1ccccc1-c1nnc(-c2ccccc2)o1 [Entry 80, 2-(2-nitrophenyl)-5-phenyl-1,3,4-oxadiazole]	1000 to 5000 nM	1000 to 5000 nM		
O=[N+]([O-])c1cccc(-c2nnc(-c3ccccc3)o2)c1 [Entry 81, 2-(3-nitrophenyl)-5-phenyl-1,3,4-oxadiazole]	1000 to 5000 nM	1000 to 5000 nM		

Second part, the compound after the results:

EC50 (ERRα)	EC50 (ERRγ)	EC50 (ERRα) μM (ERRα)	EC50 (ERRγ) μM (ERRγ)	SMILES
1000 to 5000 nM	1000 to 5000 nM			FC(F)(F)c1ccc(-c2nnc(-c3ccco3)o2)cc1 [Entry 44, 2-(furan-2-yl)-5-(4-(trifluoromethyl)phenyl)-1,3,4-oxadiazole]
1000 to 5000 nM	> 5000 nM			Cc1ccc(-c2nnc(-c3ccc(C(F)(F)F)cc3)o2)o1 [Entry 45, 2-(5-methylfuran-2-yl)-5-(4-(trifluoromethyl)phenyl)-1,3,4-oxadiazole]
1000 to 5000 nM	1000 to 5000 nM			FC(F)(F)c1ccc(-c2nnc(-c3cccs3)o2)cc1 [Entry 46, 2-(thiophen-2-yl)-5-(4-(trifluoromethyl)phenyl)-1,3,4-oxadiazole]
< 1000 nM	< 1000 nM			FC(F)(F)c1ccc(-c2nnc(-c3ccccn3)o2)cc1 [Entry 49, 2-(pyridin-2-yl)-5-(4-(trifluoromethyl)phenyl)-1,3,4-oxadiazole]
1000 to 5000 nM	1000 to 5000 nM			O=[N+]([O-])c1ccccc1-c1nnc(-c2ccc(C(F)(F)F)cc2)o1 [Entry 50, 2-(2-nitrophenyl)-5-(4-(trifluoromethyl)phenyl)-1,3,4-oxadiazole]
< 1000 nM	1000 to 5000 nM			FC(F)(F)c1ccc(-c2nnc(-c3ccccc3Cl)o2)cc1 [Entry 53, 2-(2-chlorophenyl)-5-(4-(trifluoromethyl)phenyl)-1,3,4-oxadiazole]
< 1000 nM	< 1000 nM			FC(F)(F)c1cccc(-c2nnc(-c3ccccc3)o2)c1 [Entry 56, 2-phenyl-5-(3-(trifluoromethyl)phenyl)-1,3,4-oxadiazole]
< 1000 nM	1000 to 5000 nM			FC(F)(F)c1cccc(-c2nnc(-c3ccco3)o2)c1 [Entry 57, 2-(furan-2-yl)-5-(3-(trifluoromethyl)phenyl)-1,3,4-oxadiazole]
< 1000 nM	< 1000 nM			FC(F)(F)c1cccc(-c2nnc(-c3cccs3)o2)c1 [Entry 58, 2-(thiophen-2-yl)-5-(3-(trifluoromethyl)phenyl)-1,3,4-oxadiazole]
< 1000 nM	1000 to 5000 nM			FC(F)(F)c1cccc(-c2nnc(-c3ccnc4ccccc34)o2)c1 [Entry 59, 2-(quinolin-4-yl)-5-(3-(trifluoromethyl)phenyl)-1,3,4-oxadiazole]
< 1000 nM	< 1000 nM			FC(F)(F)c1cccc(-c2nnc(-c3ccccn3)o2)c1 [Entry 61, 2-(pyridin-2-yl)-5-(3-(trifluoromethyl)phenyl)-1,3,4-oxadiazole]
< 1000 nM	< 1000 nM			Nc1cccc(-c2nnc(-c3ccccc3)o2)c1 [Entry 69, 3-(5-phenyl-1,3,4-oxadiazol-2-yl)aniline]
< 1000 nM	< 1000 nM			Nc1ccc(-c2nnc(-c3ccccc3)o2)cc1 [Entry 70, 4-(5-phenyl-1,3,4-oxadiazol-2-yl)aniline]
< 1000 nM	< 1000 nM			COc1ccc(-c2nnc(-c3ccccc3)o2)c(N)c1 [Entry 71, 5-methoxy-2-(5-phenyl-1,3,4-oxadiazol-2-yl)aniline]
< 1000 nM	1000 to 5000 nM			Nc1cc(Br)ccc1-c1nnc(-c2ccccc2)o1 [Entry 72, 5-bromo-2-(5-phenyl-1,3,4-oxadiazol-2-yl)aniline]
< 1000 nM	< 1000 nM			COc1ccc(-c2nnc(-c3ccccc3N)o2)cc1 [Entry 74, 2-(5-(4-methoxyphenyl)-1,3,4-oxadiazol-2-yl)aniline]
< 1000 nM	< 1000 nM			CC(C)(C)c1ccc(-c2nnc(-c3ccccc3N)o2)cc1 [Entry 75, 2-(5-(4-(tert-butyl)phenyl)-1,3,4-oxadiazol-2-yl)aniline]
< 1000 nM	< 1000 nM			COc1ccc(-c2nnc(-c3ccccc3[N+](=O)[O-])o2)cc1 [Entry 82, 2-(4-methoxyphenyl)-5-(2-nitrophenyl)-1,3,4-oxadiazole]
< 1000 nM	< 1000 nM			CC(C)(C)c1ccc(-c2nnc(-c3ccccc3[N+](=O)[O-])o2)cc1 [Entry 83, 2-(4-(tert-butyl)phenyl)-5-(2-nitrophenyl)-1,3,4-oxadiazole]
